These compounds were tested against T1, KATP channels (Homo sapiens, UniProt O60706+Q14654) (assay: Potassium Channel Assay (FLIPR membrane potential, TE671 cells)). Details: TE671 human medulloblastoma cells, Membrane Potential Assay Dye, room temperature, hyperpolarization from KATP channel opening.
T1 construct: TE671 human medulloblastoma cells were obtained from ATCC; host or cells: TE671 human medulloblastoma cells
T1 sequence (O60706 1-1549 isoform O60706-2): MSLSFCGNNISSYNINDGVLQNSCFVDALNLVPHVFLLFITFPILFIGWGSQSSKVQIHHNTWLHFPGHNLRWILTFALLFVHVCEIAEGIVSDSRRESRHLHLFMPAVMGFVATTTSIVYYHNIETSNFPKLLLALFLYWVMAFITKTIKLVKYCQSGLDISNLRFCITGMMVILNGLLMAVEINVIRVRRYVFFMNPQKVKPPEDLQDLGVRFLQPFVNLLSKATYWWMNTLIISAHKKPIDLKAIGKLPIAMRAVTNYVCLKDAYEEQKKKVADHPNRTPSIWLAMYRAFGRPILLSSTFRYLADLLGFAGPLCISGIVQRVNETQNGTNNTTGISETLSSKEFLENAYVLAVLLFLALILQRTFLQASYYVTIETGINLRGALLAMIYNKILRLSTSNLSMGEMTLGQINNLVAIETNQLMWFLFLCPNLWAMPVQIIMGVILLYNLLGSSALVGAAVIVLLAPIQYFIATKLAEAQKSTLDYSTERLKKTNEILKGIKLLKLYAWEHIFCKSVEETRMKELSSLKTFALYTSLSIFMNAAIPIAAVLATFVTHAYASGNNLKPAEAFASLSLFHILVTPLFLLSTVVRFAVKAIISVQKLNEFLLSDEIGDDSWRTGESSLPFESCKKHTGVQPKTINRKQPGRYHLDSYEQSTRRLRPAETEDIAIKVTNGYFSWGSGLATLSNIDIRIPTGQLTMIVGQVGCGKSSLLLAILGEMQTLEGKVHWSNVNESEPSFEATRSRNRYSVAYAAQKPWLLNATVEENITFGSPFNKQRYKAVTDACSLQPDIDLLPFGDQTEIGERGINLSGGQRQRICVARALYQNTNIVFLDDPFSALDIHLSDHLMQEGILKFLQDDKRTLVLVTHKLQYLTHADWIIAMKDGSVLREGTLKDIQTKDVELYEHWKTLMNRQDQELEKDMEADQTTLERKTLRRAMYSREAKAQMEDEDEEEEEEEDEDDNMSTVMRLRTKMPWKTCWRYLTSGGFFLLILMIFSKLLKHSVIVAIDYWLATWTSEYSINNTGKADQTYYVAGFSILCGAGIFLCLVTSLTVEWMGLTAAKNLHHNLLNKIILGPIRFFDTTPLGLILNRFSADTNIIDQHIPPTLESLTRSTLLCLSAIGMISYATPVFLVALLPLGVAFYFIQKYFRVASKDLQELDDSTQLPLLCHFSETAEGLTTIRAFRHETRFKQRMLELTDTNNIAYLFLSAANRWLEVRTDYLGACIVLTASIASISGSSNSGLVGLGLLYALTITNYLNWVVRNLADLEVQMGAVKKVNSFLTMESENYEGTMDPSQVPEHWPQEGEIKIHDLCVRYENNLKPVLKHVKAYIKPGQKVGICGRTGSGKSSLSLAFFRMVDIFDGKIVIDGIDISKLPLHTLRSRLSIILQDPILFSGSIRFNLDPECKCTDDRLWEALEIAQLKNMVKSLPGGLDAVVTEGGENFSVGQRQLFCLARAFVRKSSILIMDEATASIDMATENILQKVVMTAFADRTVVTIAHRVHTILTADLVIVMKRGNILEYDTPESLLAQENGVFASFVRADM
T1 sequence (Q14654 whole entry): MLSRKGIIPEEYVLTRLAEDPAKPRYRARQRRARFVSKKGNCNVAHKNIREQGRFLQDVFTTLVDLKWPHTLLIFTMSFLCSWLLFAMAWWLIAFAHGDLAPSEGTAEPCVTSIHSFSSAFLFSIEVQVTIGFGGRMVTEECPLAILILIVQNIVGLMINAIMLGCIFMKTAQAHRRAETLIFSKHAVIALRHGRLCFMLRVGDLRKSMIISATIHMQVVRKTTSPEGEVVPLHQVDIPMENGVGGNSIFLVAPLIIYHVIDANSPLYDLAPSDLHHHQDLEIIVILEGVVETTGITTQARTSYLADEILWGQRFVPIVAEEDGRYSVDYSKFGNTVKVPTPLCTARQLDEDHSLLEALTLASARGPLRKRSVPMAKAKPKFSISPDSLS
Format: cell-based
How it was run: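 Human medulloblastoma cells plated day before at 50K/well, loaded 15–30 min with membrane potential dye in HEPES buffer (2 mM KCl, 2 mM CaCl2, 5 mM glucose) at room temperature. Compound-induced hyperpolarization (fluorescence decrease) monitored 3 min; 5 μM glyburide then added to confirm KATP opener specificity.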
For CC1(C)Oc2ccc(S(=O)(=O)c3ccccc3)cc2[C@@H](n2oc3ccc(Cl)cc3c2=O)[C@@H]1O [Compound 76, 2-(6-Benzenesulfonyl-3S-hydroxy-2,2-dimethyl-chroman-4-yl)-5-chloro-4R-benzo[d]isoxazol-3-one], the EC50 was 400 nM.
CC1(C)Oc2ccc(C#N)cc2[C@@H](n2c(=O)ccn2-c2ccccc2)[C@@H]1O (racemic) [Compound 62, 3-Hydroxy-2,2-dimethyl-4-(5-oxo-2-phenyl-2,5-dihydro-pyrazol-1-yl)-chroman-6-carbonitrile] gave an EC50 of 13500 nM.
With CC1(C)Oc2ccc(C#N)cc2[C@@H](Nc2noc3ccc(Cl)cc23)[C@@H]1O [Compound 39, (3S,4R)-4-(5-Chloro-benzo[d]isoxazol-3-ylamino)-3-hydroxy-2,2-dimethyl-chroman-6-carbonitrile] the EC50 was 610 nM.
CC1(C)Oc2ccc(C#N)cc2[C@@H](N2C(=O)c3ccc(Cl)cc3C2=O)[C@@H]1O [Compound 115, 4-(5-Chloro-1,3-dioxo-1,3-dihydro-isoindol-2-yl)-3-hydroxy-2,2-dimethyl-chroman-6-carbonitrile] showed an EC50 of 3160 nM.
Work on CC1(C)Oc2ccc(C#N)cc2[C@@H](Nc2nc(=O)c3cc(Cl)ccc3[nH]2)[C@@H]1O [Compound 64, (3S,4R)-4-(6-Chloro-4-oxo-1,4-dihydro-quinazolin-2-ylamino)-3-hydroxy-2,2-dimethyl-chroman-6-carbonitrile] yielded an EC50 of 9120 nM.
Cc1cn([C@@H]2c3cc(C#N)ccc3OC(C)(C)[C@H]2O)c(-c2ccccc2)n1 (racemic) [Compound 9, 3-Hydroxy-2,2-dimethyl-4-(4-methyl-2-phenyl-imidazol-1-yl)-chroman-6-carbonitrile] was tested, and the EC50 was over 30000 nM.
Compound CC1(C)Oc2ccc(C#N)cc2[C@@H](Oc2ccn(-c3ccccc3)n2)[C@@H]1O (racemic) [Compound 58, 3-Hydroxy-2,2-dimethyl-4-(1-phenyl-1H-pyrazol-3-yloxy)-chroman-6-carbonitrile] has an EC50 of 2620 nM.
For CC1(C)Oc2ccc(C#N)cc2[C@@H](Oc2ccn(-c3ccc(Cl)cc3)n2)[C@@H]1O (racemic) [Compound 55, 4-[1-(4-Chloro-phenyl)-1H-pyrazol-3-yloxy]-3-hydroxy-2,2-dimethyl-chroman-6-carbonitrile], the EC50 was 8820 nM.
For CCN(CC)C(=O)c1ccc2c(c1)[C@@H](Nc1noc3ccc(Cl)cc13)[C@H](O)C(C)(C)O2 [Compound 89, 4R-(5-Chloro-benzo[d]isoxazol-3-ylamino)-3S-hydroxy-2,2-dimethyl-chroman-6-carboxylic acid diethylamide], the EC50 was over 30000 nM.
With CC1(C)Oc2ccc(S(=O)(=O)N3CCCCC3)cc2[C@@H](n2oc3cc(Cl)ccc3c2=O)[C@@H]1O [Compound 84, 6-Chloro-2-[3S-hydroxy-2,2-dimethyl-6-(piperidine-1-sulfonyl)-chroman-4-yl]-R-benzo[d]isoxazol-3-one] the EC50 was 1080 nM.
With CC1(C)Oc2ccc(S(=O)(=O)c3ccccc3)cc2[C@@H](Nc2noc3ccc(Cl)cc23)[C@@H]1O [Compound 74, 6-Benzenesulfonyl-4R-(5-chloro-benzo[d]isoxazol-3-ylamino)-2,2-dimethyl-chroman-3S-ol] the EC50 was 1370 nM.
